From publication PMC8409151, “GT198 Is a Target of Oncology Drugs and Anticancer Herbs” (Frontiers in Oral Health, 2021)
Several values for one entry are separate records, joined by “and”; a condition that tells them apart may be missing. Equal values may be shown once. Read-outs that look alike come from different tables or passages of the source. *1 amine or outer side, *2 acyl side, *3 side chain or, on linkers, in order; H or OH if unused. Where a SMILES comes first, the peptide text is derived from it. Bridges are numbered along the chain shown (N, C = ends). Roman numbers before positions name the chains, in order. [ ]: non-standard residue; d: D form. Actinocin(9to1) = Cc1c2oc3c(C)ccc(C(=O)[*:1])c3nc-2c(C(=O)[*:2])c(N)c1=O; NMeV = CN[C@H](C(=O)O)C(C)C; Sar = CNCC(=O)O

T1: GT198 (Homo sapiens, UniProt Q9P2W1)
T1 sequence (Q9P2W1 1-180): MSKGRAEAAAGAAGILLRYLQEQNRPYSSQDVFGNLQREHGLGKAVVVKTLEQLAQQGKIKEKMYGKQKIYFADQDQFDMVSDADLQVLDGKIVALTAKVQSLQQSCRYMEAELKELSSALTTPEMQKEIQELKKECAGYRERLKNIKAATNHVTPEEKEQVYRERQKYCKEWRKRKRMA

T2: GT198 (Hop2), C-terminally truncated (human, UniProt Q9P2W1 1-180, del181-217)
T2 sequence: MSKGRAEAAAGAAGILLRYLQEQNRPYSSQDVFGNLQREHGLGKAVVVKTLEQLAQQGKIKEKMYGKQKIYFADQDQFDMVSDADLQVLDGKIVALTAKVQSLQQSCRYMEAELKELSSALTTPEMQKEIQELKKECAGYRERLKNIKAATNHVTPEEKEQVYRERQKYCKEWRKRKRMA


Key:
GT198 [1] = molecular target: T1, GT198; experiment: biochemical
GT198 [2] = molecular target: T1, GT198; experiment: In vitro DNA-binding assay of GT198 (biotinylated DNA, chemiluminescence); parameters: Efficacy: dose or concentration left out as unconfirmed; conditions: for Efficacy: percent of inhibition of drugs; for inhibition at 2 µM: read-out: Efficacy; for Activity: NCI Approved Oncology Drug Set VII
GT198 [3] = molecular target: T1, GT198; parameters: this study used a C-terminal truncated version of GT198 (aa 1–180) to ensure high sensitivity of the assay; His tag (N); made in house; host or cells: E. coli BL21 (DE3) pLysS; method as in doi:10.1101/675579; conditions: separate study ref 45; cited from earlier work
[4] = molecular target: T2, GT198 (Hop2), C-terminally truncated; experiment: plate binding assay (immobilized protein, streptavidin-HRP chemiluminescence); EC50; no drug; 20 mM Tris-HCl pH 7.5, 50 mM NaCl, 75 mM KCl, 0.5 mM MgCl2, 0.05% Triton X-100, 10% glycerol, 1 mM DTT; 4 C, 4 h to overnight; 400 ng/well GT198 plus 5 ug BSA; conditions: protein: recombinant; tags: N-terminal His; chain copies: 2; label: biotin
[5] = Table 1, drugs not measured with IC50 are shown as active or inactive
[6] = IC50, figures 2, 3, 150 nM DNA, sigmoidal curve fit, ND = not detectable

Molecule	IC50 (GT198 [1]) [nM]	GT198 inhibition (in words) (GT198 [2])	inhibition at 2 µM (GT198 [2]) [%]	Efficacy (active or inactive) (GT198 [2]; [5])	other results
CC[C@@]1(O)C(=O)OCc2c1cc1n(c2=O)Cc2cc3c(CN(C)C)c(O)ccc3nc2-1 [Topotecan]	> 2000	very poor affinities or fail to inhibit GT198	4		Efficacy (GT198 [2]; Supplementary Table 1): 4%
O=C1c2c(O)ccc(O)c2C(=O)c2c(NCCNCCO)ccc(NCCNCCO)c21 [Mitoxantrone]	187	almost complete inhibition	90		IC50 (GT198 [2]; [6]): 187 nM; Activity (GT198 [2]; Supplementary Table 1): +; Efficacy (GT198 [2]; Supplementary Table 1): 90%
N.N.[Cl][Pt][Cl] [Cisplatin]				Inactive	
CC(C)C[C@H](NC(=O)[C@H](CCc1ccccc1)NC(=O)CN1CCOCC1)C(=O)N[C@@H](Cc1ccccc1)C(=O)N[C@@H](CC(C)C)C(=O)[C@@]1(C)CO1 [Carfilzomib]		positive inhibitors		Active	
CCCCC(=O)OCC(=O)[C@]1(O)Cc2c(O)c3c(c(O)c2[C@@H](O[C@H]2C[C@H](NC(=O)C(F)(F)F)[C@H](O)[C@H](C)O2)C1)C(=O)c1c(OC)cccc1C3=O [Valrubicin]	973		26		IC50 (GT198 [2]; [6]): 973 nM
N.N.O=C([O-])C1(C(=O)[O-])CCC1.[Pt+2] [Carboplatin]		does not inhibit GT198		Inactive	IC50 (GT198 [2]; Supplementary Table 1): > 2000 nM; Efficacy (GT198 [2]; Supplementary Table 1): 0%
CC(=O)O[C@@]12CO[C@@H]1C[C@H](O)[C@@]1(C)C(=O)[C@H](O)C3=C(C)[C@@H](OC(=O)[C@H](O)[C@@H](NC(=O)OC(C)(C)C)c4ccccc4)C[C@@](O)([C@@H](OC(=O)c4ccccc4)[C@H]21)C3(C)C [Docetaxel]		GT198 inhibitors		Active	
CC1=C(O)C(=O)C=C2C1=CC=C1[C@@]2(C)CC[C@@]2(C)[C@@H]3C[C@](C)(C(=O)O)CC[C@]3(C)CC[C@]12C [Celastrol]		positive	30		IC50 (GT198 [2]; IC50): 350 nM
Cc1c2oc3c(C)ccc(C(=O)N[C@@H]4C(=O)N[C@H](C(C)C)C(=O)N5CCC[C@H]5C(=O)N(C)CC(=O)N(C)[C@@H](C(C)C)C(=O)O[C@@H]4C)c3nc-2c(C(=O)N[C@@H]2C(=O)N[C@H](C(C)C)C(=O)N3CCC[C@H]3C(=O)N(C)CC(=O)N(C)[C@@H](C(C)C)C(=O)O[C@@H]2C)c(N)c1=O [Dactinomycin] (I: T[dV]P[Sar][NMeV] / II: T[dV]P[Sar][NMeV]; ester I:1-I:C, II:1-II:C; linker I:N-II:N via Actinocin(9to1))		positive inhibitors			Efficacy (active or inactive) (GT198 [2]): Active
COc1cccc2c1C(=O)c1c(O)c3c(c(O)c1C2=O)C[C@@](O)(C(=O)CO)C[C@@H]3O[C@H]1C[C@H](N)[C@@H](O)[C@H](C)O1 [Epirubicin]					IC50 (GT198 [2]; IC50): 750 nM and 749 nM
CCc1c2c(nc3ccc(OC(=O)N4CCC(N5CCCCC5)CC4)cc13)-c1cc3c(c(=O)n1C2)COC(=O)[C@]3(O)CC [Irinotecan]	> 2000	very poor affinities or fail to inhibit GT198	10		
CC[C@@]1(O)C(=O)OCc2c1cc1n(c2=O)Cc2cc3ccccc3nc2-1 [Camptothecin]	2060	very poor affinities or fail to inhibit GT198	30		
COc1cccc2c1C(=O)c1c(O)c3c(c(O)c1C2=O)C[C@@](O)(C(C)=O)C[C@@H]3O[C@H]1C[C@H](N)[C@H](O)[C@H](C)O1 [Daunorubicin]	149		48		IC50 (GT198 [2]; [6]): 150 nM
CCTGGGGTTGCTGAGGTCCTGGCAG (ssDNA, biotin before the first printed base (5')) [biotin 25-mer ssDNA]					apparent K (half saturation) [4]: 43 nM

The next lines start with results.

IC50 (GT198 [1]) [nM]	GT198 inhibition (in words) (GT198 [2])	inhibition at 2 µM (GT198 [2]) [%]	Efficacy (active or inactive) (GT198 [2]; [5])	Molecule	other results
	GT198 inhibitors		Active	COc1cc([C@@H]2c3cc4c(cc3[C@@H](O[C@@H]3O[C@@H]5CO[C@@H](c6cccs6)O[C@H]5[C@H](O)[C@H]3O)[C@H]3COC(=O)[C@H]23)OCO4)cc(OC)c1O [Teniposide]	
5	GT198 inhibitors	32		CC(=O)O[C@H]1C(=O)[C@@]2(C)[C@H]([C@H](OC(=O)c3ccccc3)[C@]3(O)C[C@H](OC(=O)[C@H](O)[C@@H](NC(=O)c4ccccc4)c4ccccc4)C(C)=C1C3(C)C)[C@]1(OC(C)=O)CO[C@@H]1C[C@@H]2O [Paclitaxel]	Mode of inhibition (GT198 [3]): allosteric inhibitor or noncompetitive inhibitor
			Inactive	CO[C@H]1C(=O)[C@]2(C)[C@@H](OC)C[C@H]3OC[C@@]3(OC(C)=O)[C@H]2[C@H](OC(=O)c2ccccc2)[C@]2(O)C[C@H](OC(=O)[C@H](O)[C@@H](NC(=O)OC(C)(C)C)c3ccccc3)C(C)=C1C2(C)C [Cabazitaxel]	
	negatives			CN(Cc1cnc2nc(N)nc(N)c2n1)c1ccc(C(=O)N[C@@H](CCC(=O)O)C(=O)O)cc1 [Methotrexate]	
	positive inhibitors		Active	NCC(=O)CCC(=O)O [Aminolevulinic acid]	Activity (GT198 [2]; Supplementary Table 1): +
	positive inhibitors		Active	CO[C@H]1C[C@@H]2CC[C@@H](C)[C@@](O)(O2)C(=O)C(=O)N2CCCC[C@H]2C(=O)O[C@H]([C@H](C)C[C@@H]2CC[C@@H](O)[C@H](OC)C2)CC(=O)[C@H](C)/C=C(\C)[C@@H](O)[C@@H](OC)C(=O)[C@H](C)C[C@H](C)/C=C/C=C/C=C/1C [Sirolimus]	
	positive inhibitors		Active	CCN(CC)CCNC(=O)c1c(C)[nH]c(/C=C2\C(=O)Nc3ccc(F)cc32)c1C [Sunitinib]	Activity (GT198 [2]; Supplementary Table 1): +
362		56		CC(=O)[C@]1(O)Cc2c(O)c3c(c(O)c2[C@@H](O[C@H]2C[C@H](N)[C@H](O)[C@H](C)O2)C1)C(=O)c1ccccc1C3=O [Idarubicin]	IC50 (GT198 [2]; [6]): 362 nM
24	GT198 inhibitors	42		COc1cc([C@@H]2c3cc4c(cc3[C@@H](O[C@@H]3O[C@@H]5CO[C@@H](C)O[C@H]5[C@H](O)[C@H]3O)[C@H]3COC(=O)[C@H]23)OCO4)cc(OC)c1O [Etoposide]	IC50 (GT198 [2]; [6]): 24.2 nM
	negatives		Inactive	CC[C@]1(O)C[C@H]2CN(CCc3c([nH]c4ccccc34)[C@@](C(=O)OC)(c3cc4c(cc3OC)N(C=O)[C@H]3[C@@](O)(C(=O)OC)[C@H](OC(C)=O)[C@]5(CC)C=CCN6CC[C@]43[C@@H]65)C2)C1 [Vincristine]	
	positive inhibitors		Active	O=c1[nH]c(=O)n([C@H]2C[C@H](O)[C@@H](CO)O2)cc1C(F)(F)F [Trifluridine]	Activity (GT198 [2]; Supplementary Table 1): +
